Measurements published in patent publication US20260183295A1, “METHODS AND COMPOSITIONS FOR TREATING CANCER” (Onconova Therapeutics, Inc., priority 2022, published 2026).

Tests used:
NanoLuc-CDK16 Fusion = target: T1, NanoLuc-CDK16 Fusion (Homo sapiens, UniProt Q00536); test: Cellular NanoBRET assay in HEK293 cells, raw data ratio; type: cell-based
T1 construct: expressed in transfected cells; host or cells: HEK293, transient
Experimental: HEK293 cells were transfected with 1 ug of NanoLuc-CDK16 Fusion vector and 9 ug of either carrier DNA or cyclin Y DAN. The HEK293 cells transiently expressing the vectors were then seeded into the wells of 384-well plates. The cells were pre-treated with the NanoBRET Tracer K-10 (0.5 uM) and then treated with 3-fold serial dilutions (10 uM-0.5 nM), of Compound 1 or the reference compound APY-69 for 1 hour. The BRET signal was measured on an Envision2104 Multilabel Reader. IC50 value was calculated and IC50 curve was plotted using the GraphPad Prism 4 program based on a sigmoidal dose response equation.

STK17A = target: T2, STK17A (Homo sapiens, UniProt Q9UEE5); test: CETSA-MS, MDA-MB-231 cell lysates; type: binding; settings: 2 μM and 20 μM
T2 construct: endogenous in cells; host or cells: MDA-MB-231
Experimental: (§1) Following treatment, cell lysates were thermally treated in a thermal gradient profile across a temperature range. Following the thermal shift, cell lysates were spun by centrifuge to pellet aggregate protein and the supernatant withdrawn. The supernatant was then denatured in buffer and heated to denature, reduce, and alkylate the supernatant proteins. Following heating and cooling to room temperature, cold acetone was added to the supernatant samples and proteins precipitated.
(§2) The intact cell protein samples and lysate protein samples were then digested and labeled for mass spectrometry analysis according to the manufacturer's recommended protocols. Digested and labeled protein samples were analyzed by mass spectrometry proteomic analysis and the resulting protein targets were analyzed and plotted.

UVSSA = target: T3, UVSSA (Homo sapiens, UniProt Q2YD98); test: CETSA-MS, MDA-MB-231 cell lysates; type: binding; settings: 2 μM and 20 μM
T3 construct: endogenous in cells; host or cells: MDA-MB-231
Experimental: as §1, §2

PER3 = target: T4, PER3 (Homo sapiens, UniProt P56645); test: CETSA-MS, MDA-MB-231 cell lysates; type: binding; settings: 2 μM and 20 μM
T4 construct: endogenous in cells; host or cells: MDA-MB-231
Experimental: as §1, §2

AAK1 = target: T5, AAK1 (Homo sapiens, UniProt Q2M2I8); test: CETSA-MS, MDA-MB-231 cell lysates; type: binding; settings: 2 μM and 20 μM
T5 construct: endogenous in cells; host or cells: MDA-MB-231
Experimental: as §1, §2

ZCRB1 = target: T6, ZCRB1 (Homo sapiens, UniProt Q8TBF4); test: CETSA-MS, MDA-MB-231 cell lysates; type: binding; settings: 2 μM and 20 μM
T6 construct: endogenous in cells; host or cells: MDA-MB-231
Experimental: as §1, §2

TBK1 = target: T7, TBK1 (Homo sapiens, UniProt Q9UHD2); test: CETSA-MS, MDA-MB-231 cell lysates; type: binding; settings: 2 μM and 20 μM
T7 construct: endogenous in cells; host or cells: MDA-MB-231
Experimental: as §1, §2

USF2 = target: T8, USF2 (Homo sapiens, UniProt Q15853); test: CETSA-MS, MDA-MB-231 cell lysates; type: binding; settings: 2 μM and 20 μM
T8 construct: endogenous in cells; host or cells: MDA-MB-231
Experimental: as §1, §2

MAPKAPK5 = target: T9, MAPKAPK5 (Homo sapiens, UniProt Q8IW41); test: CETSA-MS, MDA-MB-231 cell lysates; type: binding; settings: 2 μM and 20 μM
T9 construct: endogenous in cells; host or cells: MDA-MB-231
Experimental: as §1, §2

CPQ = target: T10, CPQ (Homo sapiens, UniProt Q9Y646); test: CETSA-MS, MDA-MB-231 cell lysates; type: binding; settings: 2 μM and 20 μM
T10 construct: endogenous in cells; host or cells: MDA-MB-231
Experimental: as §1, §2

BMP2K = target: T11, BMP2K (Homo sapiens, UniProt Q9NSY1); test: CETSA-MS, MDA-MB-231 cell lysates; type: binding; settings: 2 μM and 20 μM
T11 construct: endogenous in cells; host or cells: MDA-MB-231
Experimental: as §1, §2

EPHA2 = target: T12, EPHA2 (Homo sapiens, UniProt P29317); test: CETSA-MS, MDA-MB-231 cell lysates; type: binding; settings: 2 μM and 20 μM
T12 construct: endogenous in cells; host or cells: MDA-MB-231
Experimental: as §1, §2

ATAT1 = target: T13, ATAT1 (Homo sapiens, UniProt Q5SQI0); test: CETSA-MS, MDA-MB-231 cell lysates; type: binding; settings: 2 μM and 20 μM
T13 construct: endogenous in cells; host or cells: MDA-MB-231
Experimental: as §1, §2

ZNF260 = target: T14, ZNF260 (Homo sapiens, UniProt Q3ZCT1); test: CETSA-MS, MDA-MB-231 cell lysates; type: binding; settings: 2 μM and 20 μM
T14 construct: endogenous in cells; host or cells: MDA-MB-231
Experimental: as §1, §2

Caspase 3/7 = Caspase 3/7 Glo assay with or without bafilomycin A1, MDA-MB-231 cells, 2 days; type: cell-based; settings: 5 μM
Excerpt: FIGS. 34 and 35 show Caspase 3/7 activity as measured by the Caspase 3/7 Glo assay. […] The effect was enhanced by co-treatment with bafilomycin A1 cotreatment.

pRb [1] = test: Western blot, MDA-MB-231 cells, 24 hours; type: cell-based; settings: 2.5, 5, 10 μM, versus Comparator 1, 2 and 4
GSK3A = target: T15, GSK3A (Homo sapiens, UniProt P49840); test: CETSA-MS, MDA-MB-231 cell lysates and intact cells; type: cell-based; settings: present in both MDA-MB-231 cell lysates and intact cells
T15 construct: endogenous in cells; host or cells: MDA-MB-231
Experimental: as §1
(§3) TNBC MDA-MB-231 cells were grown at 37° C. in 5% CO2 and suspended in warm media and split into 4 equal volumes. […] Cells were incubated and then pelleted. Following pelleting, the cells were washed, resuspended, and heated in a thermal gradient. Following heating, the samples were flash frozen and lysed in lysis buffer, agitated by vortex, and sonicated prior to centrifugation. The supernatant was collected and denaturation buffer added. Cold acetone was then added to the cell samples, and protein collected by centrifugation. Pellets were then washed twice with cold acetone and the washed pellets prior to labeling.
as §2

CHEK1 = target: T16, CHEK1 (Homo sapiens, UniProt O14757); test: CETSA-MS, MDA-MB-231 cell lysates and intact cells; type: cell-based; settings: present in both MDA-MB-231 cell lysates and intact cells
T16 construct: endogenous in cells; host or cells: MDA-MB-231
T16 sequence (O14757 1-476): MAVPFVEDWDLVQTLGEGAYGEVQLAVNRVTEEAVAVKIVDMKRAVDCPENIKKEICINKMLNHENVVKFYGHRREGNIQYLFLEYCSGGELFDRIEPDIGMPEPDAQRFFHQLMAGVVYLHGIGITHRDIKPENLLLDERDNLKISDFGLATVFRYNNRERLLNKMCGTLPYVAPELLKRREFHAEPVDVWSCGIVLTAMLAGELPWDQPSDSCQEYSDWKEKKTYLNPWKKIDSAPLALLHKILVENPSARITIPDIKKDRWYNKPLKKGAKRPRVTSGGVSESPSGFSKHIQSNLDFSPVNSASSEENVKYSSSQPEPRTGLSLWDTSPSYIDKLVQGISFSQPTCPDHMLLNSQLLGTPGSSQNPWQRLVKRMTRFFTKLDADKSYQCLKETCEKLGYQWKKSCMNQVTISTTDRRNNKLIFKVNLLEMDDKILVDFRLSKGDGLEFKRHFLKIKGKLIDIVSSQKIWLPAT
Experimental: as §1, §3, §2

pRb pSer807/811 = test: Western blot after 2 h treatment, MDA-MB-231; type: cell-based; settings: 5 μM, relative to DMSO control
Experimental: (§4) Following treatment, a sample of each of the three treatments was analyzed by Western Blot for expression of phosphoprotein targets.

pRb [2] = test: Western blot after 2 h treatment, MDA-MB-231; type: cell-based; settings: 5 μM, relative to DMSO control
Experimental: as §4

T1 sequence (Q00536 whole entry, the tested form may be a part): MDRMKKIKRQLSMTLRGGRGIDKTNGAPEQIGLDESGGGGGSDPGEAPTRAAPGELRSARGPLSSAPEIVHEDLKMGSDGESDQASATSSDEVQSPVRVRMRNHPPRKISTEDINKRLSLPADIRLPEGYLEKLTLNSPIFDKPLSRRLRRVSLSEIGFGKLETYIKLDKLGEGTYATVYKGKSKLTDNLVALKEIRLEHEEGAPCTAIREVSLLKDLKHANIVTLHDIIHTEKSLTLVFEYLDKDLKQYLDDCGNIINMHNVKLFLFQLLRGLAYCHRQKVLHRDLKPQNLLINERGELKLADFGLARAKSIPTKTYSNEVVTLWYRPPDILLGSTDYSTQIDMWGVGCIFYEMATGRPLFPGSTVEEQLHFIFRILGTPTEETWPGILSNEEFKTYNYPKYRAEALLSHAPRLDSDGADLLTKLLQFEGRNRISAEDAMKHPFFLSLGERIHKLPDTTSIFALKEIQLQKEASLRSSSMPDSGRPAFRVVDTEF
T1 sequence (Q8ND76 whole entry partner, the tested form may be a part): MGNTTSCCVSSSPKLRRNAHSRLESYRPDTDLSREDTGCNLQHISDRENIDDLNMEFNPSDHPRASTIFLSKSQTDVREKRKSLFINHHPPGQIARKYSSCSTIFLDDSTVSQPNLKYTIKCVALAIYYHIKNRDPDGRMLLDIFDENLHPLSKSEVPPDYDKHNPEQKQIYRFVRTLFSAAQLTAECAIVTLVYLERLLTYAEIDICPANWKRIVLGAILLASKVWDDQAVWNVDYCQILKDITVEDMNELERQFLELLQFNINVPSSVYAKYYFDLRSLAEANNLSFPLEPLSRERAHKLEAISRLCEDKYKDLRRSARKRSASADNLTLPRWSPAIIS
T10 sequence (Q9Y646 45-472): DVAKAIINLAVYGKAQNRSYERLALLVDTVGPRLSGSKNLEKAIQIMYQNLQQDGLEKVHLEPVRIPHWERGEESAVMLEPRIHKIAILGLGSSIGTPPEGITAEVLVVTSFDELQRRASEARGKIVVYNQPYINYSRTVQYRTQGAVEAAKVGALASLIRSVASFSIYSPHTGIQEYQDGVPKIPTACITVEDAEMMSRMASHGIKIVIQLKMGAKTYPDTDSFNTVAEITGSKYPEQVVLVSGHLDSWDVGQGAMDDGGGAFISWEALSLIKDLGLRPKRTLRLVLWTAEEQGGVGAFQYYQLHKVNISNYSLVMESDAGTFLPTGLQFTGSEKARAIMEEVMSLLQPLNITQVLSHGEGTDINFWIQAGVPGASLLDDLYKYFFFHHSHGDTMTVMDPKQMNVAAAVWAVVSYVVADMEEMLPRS
T7 sequence (Q9UHD2 whole entry): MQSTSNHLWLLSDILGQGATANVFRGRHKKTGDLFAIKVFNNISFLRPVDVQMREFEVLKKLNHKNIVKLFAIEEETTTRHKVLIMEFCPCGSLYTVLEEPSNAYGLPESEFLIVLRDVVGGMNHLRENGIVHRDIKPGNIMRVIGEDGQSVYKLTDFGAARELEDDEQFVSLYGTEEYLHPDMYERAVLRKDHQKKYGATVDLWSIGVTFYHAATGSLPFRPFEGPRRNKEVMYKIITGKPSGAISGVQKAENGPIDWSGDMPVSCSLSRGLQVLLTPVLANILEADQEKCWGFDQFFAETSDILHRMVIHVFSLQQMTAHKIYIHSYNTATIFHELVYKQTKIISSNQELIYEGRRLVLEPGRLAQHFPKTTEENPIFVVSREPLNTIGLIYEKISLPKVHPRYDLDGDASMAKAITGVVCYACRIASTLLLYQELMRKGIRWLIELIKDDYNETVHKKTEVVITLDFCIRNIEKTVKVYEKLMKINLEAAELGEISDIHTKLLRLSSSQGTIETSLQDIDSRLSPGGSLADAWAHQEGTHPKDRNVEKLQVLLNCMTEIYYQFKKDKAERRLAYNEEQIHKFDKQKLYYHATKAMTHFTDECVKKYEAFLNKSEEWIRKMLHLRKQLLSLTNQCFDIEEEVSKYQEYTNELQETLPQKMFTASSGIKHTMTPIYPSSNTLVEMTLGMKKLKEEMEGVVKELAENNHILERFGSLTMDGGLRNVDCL
T9 sequence (Q8IW41 whole entry): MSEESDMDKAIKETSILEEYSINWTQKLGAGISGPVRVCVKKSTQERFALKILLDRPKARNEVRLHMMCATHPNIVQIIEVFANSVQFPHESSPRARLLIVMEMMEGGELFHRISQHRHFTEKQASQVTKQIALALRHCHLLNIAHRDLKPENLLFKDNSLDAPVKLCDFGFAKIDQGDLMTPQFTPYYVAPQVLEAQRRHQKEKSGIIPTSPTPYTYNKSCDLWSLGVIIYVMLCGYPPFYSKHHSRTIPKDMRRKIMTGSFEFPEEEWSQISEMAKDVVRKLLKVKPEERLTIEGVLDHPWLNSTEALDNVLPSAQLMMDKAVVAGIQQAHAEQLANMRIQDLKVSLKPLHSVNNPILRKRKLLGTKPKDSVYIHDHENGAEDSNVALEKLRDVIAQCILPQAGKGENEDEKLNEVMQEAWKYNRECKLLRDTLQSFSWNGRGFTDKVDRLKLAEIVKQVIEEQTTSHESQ
T12 sequence (P29317 24-976): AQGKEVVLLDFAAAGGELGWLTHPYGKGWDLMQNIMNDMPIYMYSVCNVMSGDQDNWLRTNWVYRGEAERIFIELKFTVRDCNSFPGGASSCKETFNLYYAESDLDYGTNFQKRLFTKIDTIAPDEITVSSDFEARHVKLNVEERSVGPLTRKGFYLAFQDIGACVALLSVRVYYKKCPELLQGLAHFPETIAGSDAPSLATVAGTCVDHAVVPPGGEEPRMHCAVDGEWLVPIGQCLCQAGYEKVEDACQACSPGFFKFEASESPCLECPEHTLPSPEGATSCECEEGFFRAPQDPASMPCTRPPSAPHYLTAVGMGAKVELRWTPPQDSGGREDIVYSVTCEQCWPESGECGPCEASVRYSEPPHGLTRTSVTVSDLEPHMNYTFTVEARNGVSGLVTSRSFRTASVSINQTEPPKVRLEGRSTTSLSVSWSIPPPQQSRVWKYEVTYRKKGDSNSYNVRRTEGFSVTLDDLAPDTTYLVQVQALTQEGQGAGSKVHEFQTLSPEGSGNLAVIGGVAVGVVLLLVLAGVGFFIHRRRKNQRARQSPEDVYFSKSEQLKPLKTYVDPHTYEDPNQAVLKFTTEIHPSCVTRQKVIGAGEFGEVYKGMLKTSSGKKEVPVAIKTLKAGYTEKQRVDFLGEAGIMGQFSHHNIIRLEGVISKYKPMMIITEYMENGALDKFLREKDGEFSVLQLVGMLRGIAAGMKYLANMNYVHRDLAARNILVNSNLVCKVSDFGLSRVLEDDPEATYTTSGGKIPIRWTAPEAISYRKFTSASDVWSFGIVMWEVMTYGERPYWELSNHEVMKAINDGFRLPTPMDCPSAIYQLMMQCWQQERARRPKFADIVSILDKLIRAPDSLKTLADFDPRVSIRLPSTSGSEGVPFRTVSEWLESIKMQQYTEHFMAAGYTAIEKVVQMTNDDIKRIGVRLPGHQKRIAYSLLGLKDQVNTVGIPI
T14 sequence (Q3ZCT1 whole entry): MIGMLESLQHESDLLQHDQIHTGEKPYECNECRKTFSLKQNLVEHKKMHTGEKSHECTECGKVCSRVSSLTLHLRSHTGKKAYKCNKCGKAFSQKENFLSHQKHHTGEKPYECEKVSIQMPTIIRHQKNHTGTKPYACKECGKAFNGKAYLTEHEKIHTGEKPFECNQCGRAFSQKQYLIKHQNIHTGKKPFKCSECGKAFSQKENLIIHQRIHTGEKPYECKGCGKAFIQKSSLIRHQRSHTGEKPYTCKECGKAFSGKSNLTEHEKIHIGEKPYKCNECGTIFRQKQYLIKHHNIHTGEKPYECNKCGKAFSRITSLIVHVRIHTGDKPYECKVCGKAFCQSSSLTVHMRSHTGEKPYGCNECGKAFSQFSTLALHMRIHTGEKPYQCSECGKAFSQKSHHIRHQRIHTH
T11 sequence (Q9NSY1 whole entry): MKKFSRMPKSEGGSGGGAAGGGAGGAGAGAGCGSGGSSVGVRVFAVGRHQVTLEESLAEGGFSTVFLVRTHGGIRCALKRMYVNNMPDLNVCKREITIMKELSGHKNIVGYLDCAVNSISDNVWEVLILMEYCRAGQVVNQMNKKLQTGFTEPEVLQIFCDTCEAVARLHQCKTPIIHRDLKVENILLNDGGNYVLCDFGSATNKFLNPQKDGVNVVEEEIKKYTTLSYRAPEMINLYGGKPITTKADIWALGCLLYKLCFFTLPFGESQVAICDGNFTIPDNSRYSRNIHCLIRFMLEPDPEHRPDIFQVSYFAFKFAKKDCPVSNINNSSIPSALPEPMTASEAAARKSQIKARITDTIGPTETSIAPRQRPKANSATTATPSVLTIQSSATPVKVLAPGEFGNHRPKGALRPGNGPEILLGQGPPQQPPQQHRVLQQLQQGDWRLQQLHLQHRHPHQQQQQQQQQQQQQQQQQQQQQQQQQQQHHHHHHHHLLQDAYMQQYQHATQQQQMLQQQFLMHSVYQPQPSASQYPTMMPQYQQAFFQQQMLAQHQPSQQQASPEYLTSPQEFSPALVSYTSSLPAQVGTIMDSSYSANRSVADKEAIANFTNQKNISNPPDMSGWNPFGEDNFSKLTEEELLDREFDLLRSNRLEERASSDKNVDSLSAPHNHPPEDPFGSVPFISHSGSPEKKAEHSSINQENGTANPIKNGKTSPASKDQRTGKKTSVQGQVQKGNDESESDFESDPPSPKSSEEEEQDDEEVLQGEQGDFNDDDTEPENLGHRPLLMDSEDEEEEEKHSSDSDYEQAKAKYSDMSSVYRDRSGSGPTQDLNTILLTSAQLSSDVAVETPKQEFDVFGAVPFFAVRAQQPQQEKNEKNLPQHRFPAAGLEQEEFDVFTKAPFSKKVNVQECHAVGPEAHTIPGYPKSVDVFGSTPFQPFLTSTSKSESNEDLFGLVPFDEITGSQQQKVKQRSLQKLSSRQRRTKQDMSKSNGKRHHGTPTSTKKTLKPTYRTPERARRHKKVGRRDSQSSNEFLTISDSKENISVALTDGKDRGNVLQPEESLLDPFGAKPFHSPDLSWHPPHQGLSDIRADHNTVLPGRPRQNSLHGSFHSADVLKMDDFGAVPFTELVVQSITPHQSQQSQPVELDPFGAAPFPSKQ

## CN1CCN(c2ccc(Nc3ncc4cc(C#N)c(=O)n(C5CCCC5)c4n3)cc2)CC1 [Compound 1, 8-cyclopentyl-2-((4-(4-methylpiperazin-1-yl)phenyl)amino)-7-oxo-7,8-dihydropyrido[2,3-d]pyrimidine-6-carbonitrile]
NanoLuc-CDK16 Fusion; Conc. 0.0005 μM
  raw data ratio 600 nm/460 nm, Data 1: 0.07557
  raw data ratio 600 nm/460 nm, Data 2: 0.0761
NanoLuc-CDK16 Fusion; Conc. 0.0015 μM
  raw data ratio 600 nm/460 nm, Data 1: 0.06908
  raw data ratio 600 nm/460 nm, Data 2: 0.06919
NanoLuc-CDK16 Fusion; Conc. 0.0046 μM
  raw data ratio 600 nm/460 nm, Data 1: 0.05883
  raw data ratio 600 nm/460 nm, Data 2: 0.05984
NanoLuc-CDK16 Fusion; Conc. 0.0137 μM
  raw data ratio 600 nm/460 nm, Data 1: 0.04626
  raw data ratio 600 nm/460 nm, Data 2: 0.04683
NanoLuc-CDK16 Fusion; Conc. 0.0412 μM
  raw data ratio 600 nm/460 nm, Data 1: 0.04036
  raw data ratio 600 nm/460 nm, Data 2: 0.04048
NanoLuc-CDK16 Fusion; Conc. 0.1235 μM
  raw data ratio 600 nm/460 nm, Data 1: 0.02963
  raw data ratio 600 nm/460 nm, Data 2: 0.03005
NanoLuc-CDK16 Fusion; Conc. 0.3704 μM
  raw data ratio 600 nm/460 nm, Data 1: 0.02837
  raw data ratio 600 nm/460 nm, Data 2: 0.02942
NanoLuc-CDK16 Fusion; Conc. 1.1111 μM
  raw data ratio 600 nm/460 nm, Data 1: 0.02836
  raw data ratio 600 nm/460 nm, Data 2: 0.02899
NanoLuc-CDK16 Fusion; Conc. 3.3333 μM
  raw data ratio 600 nm/460 nm, Data 1: 0.02996
  raw data ratio 600 nm/460 nm, Data 2: 0.02908
NanoLuc-CDK16 Fusion; Conc. 10.0000 μM
  raw data ratio 600 nm/460 nm, Data 1: 0.02733
  raw data ratio 600 nm/460 nm, Data 2: 0.02831
STK17A
  Group (CETSA-MS thermal shift): Stabilization
UVSSA
  Group (CETSA-MS thermal shift): Destabilization
PER3
  Group (CETSA-MS thermal shift): Stabilization
AAK1
  Group (CETSA-MS thermal shift): Stabilization
ZCRB1
  Group (CETSA-MS thermal shift): Stabilization
TBK1
  Group (CETSA-MS thermal shift): Destabilization
USF2
  Group (CETSA-MS thermal shift): Stabilization
MAPKAPK5
  Group (CETSA-MS thermal shift): Destabilization
CPQ
  Group (CETSA-MS thermal shift): Stabilization
BMP2K
  Group (CETSA-MS thermal shift): Stabilization
EPHA2
  Group (CETSA-MS thermal shift): Stabilization
ATAT1
  Group (CETSA-MS thermal shift): Stabilization
ZNF260
  Group (CETSA-MS thermal shift): Destabilization
Caspase 3/7
  Caspase 3/7 activity, compound alone: increased Caspase 3/7 activity
  effect of bafilomycin A1 cotreatment on Caspase 3/7 activity: enhanced
pRb [1]
  pRb levels: decreasing
GSK3A
  Group (CETSA-MS thermal shift): Stabilization
CHEK1
  Group (CETSA-MS thermal shift): Destabilization
pRb pSer807/811
  phosphorylation of pRb at Ser807/811: decreased phosphorylation
pRb [2]
  pRb levels: decreased pRb levels
